# Assay results reported in ChEMBL document CHEMBL1135301, “Imidazole-based ligands of the Src SH2 protein” (Bioorg Med Chem Lett, 2002).
# Target: Proto-oncogene tyrosine-protein kinase Src (Homo sapiens, UniProt P12931)
# Test: Binding affinity for p60 c-Src SH2 domain by scintillation proximity assay (SPA)
# Sequence of Proto-oncogene tyrosine-protein kinase Src (P12931 2-536 limits assumed): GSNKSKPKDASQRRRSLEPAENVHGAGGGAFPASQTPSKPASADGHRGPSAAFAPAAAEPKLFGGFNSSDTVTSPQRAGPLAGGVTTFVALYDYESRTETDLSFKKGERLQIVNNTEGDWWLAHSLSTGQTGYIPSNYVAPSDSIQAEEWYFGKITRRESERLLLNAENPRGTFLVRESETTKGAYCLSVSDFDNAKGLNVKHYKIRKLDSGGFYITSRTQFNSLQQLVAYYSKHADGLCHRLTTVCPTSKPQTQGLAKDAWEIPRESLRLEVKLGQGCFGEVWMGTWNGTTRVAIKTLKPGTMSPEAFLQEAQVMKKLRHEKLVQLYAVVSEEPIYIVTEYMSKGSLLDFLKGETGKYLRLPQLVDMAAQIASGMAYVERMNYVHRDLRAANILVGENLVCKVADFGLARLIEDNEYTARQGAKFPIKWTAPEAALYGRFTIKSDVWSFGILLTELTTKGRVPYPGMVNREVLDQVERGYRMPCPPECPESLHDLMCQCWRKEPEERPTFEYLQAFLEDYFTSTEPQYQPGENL
row,IC50 [µM],Compound
1,6.9,CCOC(=O)c1c(SCC2CCCCC2)nc(C(C)NC(=O)[C@H](Cc2ccc(OP(=O)(O)O)cc2)NC(C)=O)n1C (stereo partly drawn)
2,5.3,CC(=O)N[C@@H](Cc1ccc(C(F)(F)P(=O)(O)O)cc1)C(=O)NC(C)c1nc(SCC2CCCCC2)c(C(N)=O)n1C (stereo partly drawn)
3,8.6,CC(=O)N[C@@H](Cc1ccc(OP(=O)(O)O)cc1)C(=O)NC(C)c1nc(SCC2CCCCC2)c(C(N)=O)n1C (stereo partly drawn)
